Experimental findings from patent EP0602465A1, “Use of CN substituted benzimidazoles” (BAYER AG, priority 1992, dated 1994) are described below.

The structures appear in SMILES notation.

Common to all, as to assay: Coccidiosis in chickens: oocyst excretion in faeces (McMaster chamber)
What all share (type): in vivo
Holding throughout (settings): 3 days before until 8 days after infection, chicks 9 to 11 days old, 40 000 sporulated oocysts, 100 % = no effect, 0 % = full effect

Test [1] deals with E.acervulina.
Test [2] has as its system E. tenella.
Test [3] has as its system E. maxima.

In the case of `CCCCN(Cn1c(C#N)nc2c(Br)cc(C(F)(F)F)cc21)C(=O)OC` [Beispiel 37], the “E.acervulina Oocystenausscheidung in % im Vergleich zur unbehandelten infizierten Kontrolle” value in test [1] (Dosis 100 ppm in feed) is given as 28%; in test [1] (Dosis 250 ppm in feed), 0,5%. Moreover, the figures for the E. tenella in test [2] (Dosis 100 ppm in feed) and in test [2] (Dosis 250 ppm in feed) were 32% and 0%, respectively. In addition, the entries for the “E. maxima Oocytenausscheidung in % im Vergleich zur unbehandelten infizierten Kontrolle” value in test [3] (Dosis 100 ppm in feed) and in test [3] (Dosis 250 ppm in feed) were 26% and 0%, respectively.

As for `CC(C)OC(=O)N(Cc1ccccc1)Cn1c(C#N)nc2c(Br)cc(C(F)(F)F)cc21` [Beispiel 57], the entries for the “E.acervulina Oocystenausscheidung in % im Vergleich zur unbehandelten infizierten Kontrolle” value in test [1] (Dosis 100 ppm in feed) and in test [1] (Dosis 250 ppm in feed) were 38% and 0,01%, respectively. Moreover, the E. tenella in test [2] (Dosis 100 ppm in feed) is reported as 93%; in test [2] (Dosis 250 ppm in feed), 0%. Also, the “E. maxima Oocytenausscheidung in % im Vergleich zur unbehandelten infizierten Kontrolle” value is 5,3% in test [3] (Dosis 100 ppm in feed) and 0% in test [3] (Dosis 250 ppm in feed).
